42 compounds from US20190241569A1, “3-(ARYL OR HETEROARYL) METHYLENEINDOLIN-2-ONE DERIVATIVES AS INHIBITORS OF CANCER STEM CELL PATHWAY KINASES FOR THE TREATMENT OF CANCER” (Boston Biomedical, Inc., priority 2013, published 2019) can be followed below.

Read-outs that look alike come from different tables or passages of the source.

Holding throughout (type): cell-based
For assay [1], the system named is FaDu CSC. Briefly: Cancer stem cells, Cell Titer-Glo 72 hours (Test Example 3). On the technique in general: In ATP-based viability assays light output follows the ATP content of the culture.
Assay [2] deals with ACHN. In words: Bulk cancer cells, Cell Titer-Glo 72 hours (Test Example 2). Conditions: Homo sapiens, ACHN, 72 h. How it is done:
(§1) Tubes of 3× drug (60 uM in 500 uL complete media) were prepared from 5 mM stock solutions in DMSO. […] To treat cells, 50 uL of drug from the dilution plate was removed and added to the cell plates. […] Cells were harvested 72 hours after drug addition using Cell Titer-Glo (Promega) and luminescence measured on a plate reader.

The test system of assay [3] is FaDu. The assay is described as above. Particulars: Homo sapiens. How it is done: as §1
The test system of assay [4] is A549. Described as above. Particulars: Homo sapiens. How it is done:
as §1

The subject of assay [5] is A549 CSC. Briefly: Cancer stem cells, Cell Titer-Glo 72 hours (Test Example 3). Particulars: Homo sapiens.
The test system of assay [6] is ACHN CSC. Described as above.

The IC50 is the midpoint of a concentration-inhibition curve. A lower IC50 goes with higher potency.

Turning to `CCN(CC)CCNC(=O)c1c(C)[nH]c(/C=C2\C(=O)Nc3ccc(C4CCN(C5CCN(C(C)=O)CC5)CC4)cc32)c1C` [Example 45], the IC50 in assay [1] (Homo sapiens, FaDu, 72 h) worked out at 1 µM; in assay [2], 4.8 µM; in assay [3], 3.32 µM; in assay [4], 29.6 µM.

Turning to `COC(=O)c1c(C)[nH]c(/C=C2\C(=O)Nc3ccc(-c4csc(-c5ccccc5)n4)cc32)c1C` [Example 141], the IC50 in assay [2] stood at 1.16 µM; in assay [3] it was 21.8 µM; in assay [4] it was 16.3 µM.

In the case of `Cc1ccc(-c2nc(-c3ccc4c(c3)/C(=C/c3[nH]c(C)c(C(=O)N5CCN(C)CC5)c3C)C(=O)N4)cs2)cc1` [Example 104], the IC50 turned out to be 1.98 µM in assay [1] (Homo sapiens, FaDu, 72 h); 4.25 µM in assay [2]; 7.87 µM in assay [3]; 8.55 µM in assay [4]; 0.45 µM in assay [5].

Take `O=C1Nc2ccc(-c3csc(-c4ccncc4)n3)cc2/C1=C/c1ccc(N2CCNCC2)cc1` [Example 170]: the figures for the 50% inhibitory concentration (IC50) in assay [3] and in assay [4] were 25.2 µM and 8.73 µM, respectively.

For `CCN(CC)CCNC(=O)c1c(C)[nH]c(/C=C2\C(=O)Nc3ccc(-c4cn(-c5ccccc5)nn4)cc32)c1C` [Example 48], the IC50 is 2.9 µM in assay [1] (Homo sapiens, FaDu, 72 h); 4.73 µM in assay [2]; 6.74 µM in assay [3]; 4.88 µM in assay [4].

On to `CCN(CC)CCNC(=O)c1c(C)[nH]c(/C=C2\C(=O)Nc3ccc(C4CCN(c5ccccc5)CC4)cc32)c1C` [Example 42], for which the IC50 in assay [1] (Homo sapiens, FaDu, 72 h) is 1.3 µM; in assay [3], 1.89 µM; in assay [4] it was 16 µM.

Regarding `CCOC(=O)c1[nH]c(/C=C2\C(=O)Nc3ccc(-c4csc(-c5ccccc5)n4)cc32)c2c1CCCC2` [Example 164], the IC50 in assay [6] (Homo sapiens, ACHN, 72 h) came out at 1.6 µM; in assay [1] (Homo sapiens, FaDu, 72 h), 2.91 µM; in assay [2], 0.83 µM.

On to `CCN(CC)CCN1CCCc2[nH]c(/C=C3\C(=O)Nc4ccc(-c5csc(C6CCNCC6)n5)cc43)c(C)c2C1=O` [Example 178], for which the IC50 in assay [6] (Homo sapiens, ACHN, 72 h) worked out at 11.9 µM; in assay [3], 8.67 µM; in assay [4], 7.06 µM.

`Cc1ccc(-c2ccc3c(c2)/C(=C/c2[nH]c(C)cc2C)C(=O)N3)nc1` [Example 216]: the IC50 in assay [6] (Homo sapiens, ACHN, 72 h) was determined as 0.05 µM; in assay [3], 37.3 µM.

For the compound `CSc1cnc(-c2ccc3c(c2)/C(=C/c2[nH]c(C)cc2C)C(=O)N3)cn1` [Example 221], the IC50 in assay [6] (Homo sapiens, ACHN, 72 h) is 18.3 µM; in assay [2], 0.16 µM; in assay [4], 35.8 µM.

As for `Cc1cc(C)c(/C=C2\C(=O)Nc3ccc(-c4nc5ccccc5s4)cc32)[nH]1` [Example 235], the IC50 was 14.7 µM in assay [2], 26.8 µM in assay [3] and 16.1 µM in assay [4].

Consider `CCN(CC)CCNC(=O)c1c(C)[nH]c(/C=C2\C(=O)Nc3ccc(-c4nnc(-c5ccccc5)s4)cc32)c1C` [Example 52], for which the IC50 in assay [1] (Homo sapiens, FaDu, 72 h) worked out at 0.23 µM; in assay [3] it was 2.15 µM; in assay [4] it was 48.9 µM.

Consider `CCN(CC)CCNC(=O)c1c(C)[nH]c(/C=C2\C(=O)Nc3ccc(-c4csc(C5CCNC5)n4)cc32)c1C` (stereo not drawn) [Example 133], for which the IC50 in assay [2] came out at 6.75 µM; in assay [3] it was 2.42 µM; in assay [4], 0.72 µM; in assay [5], 32.5 µM.

In the case of `Cc1[nH]c(/C=C2\C(=O)Nc3ccc(-c4csc(-c5ccccc5)n4)cc32)c(C)c1CCC(=O)O` [Example 148], 1.65 µM corresponded to half-maximal inhibition in assay [5] (IC50).

`Cc1ccc(-c2ccc3c(c2)/C(=C/c2[nH]c(C)cc2C)C(=O)N3)cn1` [Example 213]: the half-maximal inhibitory concentration (IC50) was determined as 0.01 µM in assay [6], 24.9 µM in assay [2] and 25.8 µM in assay [4].

As for `Cc1cc(C)c(/C=C2\C(=O)Nc3ccc(-c4cccc5ncccc45)cc32)[nH]1` [Example 259], the IC50 in assay [1] (Homo sapiens, FaDu, 72 h) was 13.1 µM; in assay [2], 13.2 µM; in assay [3] it was 13.4 µM; in assay [4], 11.1 µM; in assay [5], 40 µM.

The compound `Cc1cc(C)c(/C=C2\C(=O)Nc3ccc(-c4ccncc4)cc32)[nH]1` [Example 238] showed an IC50 in assay [6] (Homo sapiens, ACHN, 72 h) of 6.95 µM.

Regarding `CCN(CC)CCNC(=O)c1c(C)[nH]c(/C=C2\C(=O)Nc3ccc(-c4cnc(-c5ccccc5)cn4)cc32)c1C` [Example 199], the IC50 in assay [1] (Homo sapiens, FaDu, 72 h) is 39.1 µM; in assay [2], 25.8 µM; in assay [3], 17.5 µM; in assay [4], 16.9 µM; in assay [5] it was 43.6 µM.

Turning to `Cc1cc(C)c(/C=C2\C(=O)Nc3ccc(-c4cncnc4)cc32)[nH]1` [Example 212], the results for the IC50 in assay [2] and in assay [4] were 12.8 µM and 20.8 µM, respectively.

On to `O=C1Nc2ccc(-c3csc(-c4ccccc4)n3)cc2/C1=C/c1cnc[nH]1` [Example 151], for which the IC50 in assay [1] (Homo sapiens, FaDu, 72 h) amounted to 6.32 µM; in assay [2], 8.74 µM; in assay [3] it was 6.14 µM; in assay [4], 11.2 µM; in assay [5], 0.9 µM.

For the compound `Cc1cc(C)c(/C=C2\C(=O)Nc3ccc(-c4csc(-n5cccn5)n4)cc32)[nH]1` [Example 232], the IC50 is 27.2 µM in assay [1] (Homo sapiens, FaDu, 72 h); 9 µM in assay [2]; 20.8 µM in assay [3]; 9.76 µM in assay [4]; 16.2 µM in assay [5].

Regarding `Cc1cc(C)c(/C=C2\C(=O)Nc3cc(-c4ccncc4)ccc32)[nH]1` [Example 250], the IC50 in assay [3] is 18.4 µM; in assay [5] it was 0.98 µM.

Take `Cc1cc(C)c(/C=C2\C(=O)Nc3ccc(-c4cnc5cccnn45)cc32)[nH]1` [Example 234]: the IC50 in assay [1] (Homo sapiens, FaDu, 72 h) turned out to be 1.55 µM; in assay [3] it was 5.23 µM; in assay [4] it was 12.5 µM; in assay [5] it was 8.66 µM.

As to `CCN(CC)CCNC(=O)c1ccc(/C=C2\C(=O)Nc3ccc(-c4csc(-c5ccccc5)n4)cc32)[nH]c1=O` [Example 121], the half-maximal inhibitory concentration (IC50) in assay [1] (Homo sapiens, FaDu, 72 h) stood at 6.15 µM; in assay [2], 3.31 µM; in assay [3], 3.1 µM; in assay [4] it was 3.64 µM.

Turning to `Cc1cc(C)c(/C=C2\C(=O)Nc3ccc(-c4nccc5ccccc45)cc32)[nH]1` [Example 219], the IC50 in assay [3] was 23.5 µM; in assay [4], 18.4 µM.

For `CCOC(=O)c1cc(C)c(/C=C2\C(=O)Nc3ccc(-c4csc(-c5ccccc5)n4)cc32)[nH]1` [Example 161], the IC50 was determined as 0.39 µM in assay [2], 13.5 µM in assay [3], 40 µM in assay [4] and 13.2 µM in assay [5].

`CCN(CC)CCN1CCCc2[nH]c(/C=C3\C(=O)Nc4ccc(-c5csc(-c6ccccc6)n5)cc43)c(C)c2C1=O` [Example 176]: the half-maximal inhibitory concentration (IC50) came out at 5.31 µM in assay [3] and 18 µM in assay [4].

Consider `O=C1Nc2ccc(-c3csc(-c4ccncc4)n3)cc2/C1=C/c1cc2c([nH]1)CCCC2` [Example 156], for which the IC50 in assay [2] is 37.8 µM; in assay [5], 0.8 µM.

Take `Cc1cc(C)c(/C=C2\C(=O)Nc3ccc(-c4cnc5ccccc5n4)cc32)[nH]1` [Example 217]: the IC50 in assay [1] (Homo sapiens, FaDu, 72 h) amounted to 0.09 µM; in assay [2], 10.6 µM; in assay [3] it was 25.8 µM; in assay [4], 7.89 µM.

For the compound `Cc1cc(C)c(/C=C2\C(=O)Nc3ccc(-c4ccccn4)cc32)[nH]1` [Example 226], the IC50 in assay [6] (Homo sapiens, ACHN, 72 h) is 0.02 µM.

`Cc1cc(C)c(/C=C2\C(=O)Nc3ccc(-c4cnc(-c5ccccc5)cn4)cc32)[nH]1` [Example 233] gave an IC50 in assay [6] (Homo sapiens, ACHN, 72 h) of 6.8 µM.

As to `Cc1cc(C)c(/C=C2\C(=O)Nc3ccc(-c4cnsc4)cc32)[nH]1` [Example 220], the IC50 amounted to 17.1 µM in assay [6] (Homo sapiens, ACHN, 72 h); 43.4 µM in assay [1] (Homo sapiens, FaDu, 72 h); 42.8 µM in assay [2]; 26.7 µM in assay [3].

With `O=C1Nc2ccc(-c3csc(-c4ccccc4)n3)cc2/C1=C/c1ccc(N2CCNCC2)cc1` [Example 171], the IC50 was 2.59 µM in assay [3] and 5.79 µM in assay [4].

With `Cc1cc(C)c(/C=C2\C(=O)Nc3ccc(-c4cc(-c5ccccc5)ccn4)cc32)[nH]1` [Example 223], the 50% inhibitory concentration (IC50) in assay [3] stood at 22.4 µM; in assay [4], 13.8 µM; in assay [5] it was 35.7 µM.

On to `O=C1Nc2ccc(-c3csc(-c4ccccc4)n3)cc2/C1=C/c1[nH]cc2ccccc12` [Example 162], for which the IC50 in assay [6] (Homo sapiens, ACHN, 72 h) came out at 4.08 µM; in assay [1] (Homo sapiens, FaDu, 72 h), 5.04 µM.

Consider `Cc1cc(C)c(/C=C2\C(=O)Nc3ccc(-c4cnc5ccccn45)cc32)[nH]1` [Example 224], for which the IC50 in assay [1] (Homo sapiens, FaDu, 72 h) was 17 µM; in assay [2], 25.2 µM; in assay [3] it was 11.4 µM; in assay [4], 16.6 µM; in assay [5] it was 20.2 µM.

Turning to `Cc1[nH]c(/C=C2\C(=O)Nc3ccc(-c4cnn(-c5ccccn5)c4)cc32)c(C)c1C(=O)N1CCN(C)CC1` [Example 31], the IC50 in assay [1] (Homo sapiens, FaDu, 72 h) amounted to 0.24 µM; in assay [3] it was 3.67 µM; in assay [4], 18.9 µM; in assay [5] it was 11.7 µM.

Turning to `Cc1cc(C)c(/C=C2\C(=O)Nc3ccc(-c4ncccn4)cc32)[nH]1` [Example 236], the IC50 in assay [1] (Homo sapiens, FaDu, 72 h) was found to be 25.2 µM; in assay [2], 25.3 µM; in assay [3] it was 26.1 µM; in assay [5], 28.7 µM.

Take `Cc1cc(C)c(/C=C2\C(=O)Nc3ccc(-c4ncccc4C)cc32)[nH]1` [Example 225]: the IC50 worked out at 0.01 µM in assay [6] and 47.4 µM in assay [1].

Consider `Cc1cc(C)c(/C=C2\C(=O)Nc3ccc(-c4ccc(C=O)cc4)cc32)[nH]1` [Example 262], for which the IC50 in assay [3] came out at 26.8 µM; in assay [4], 29.2 µM.

Regarding `CCN(CC)CCNC(=O)c1c(C)[nH]c(/C=C2\C(=O)Nc3ccc(-c4cnc(SC)cn4)cc32)c1C` [Example 201], the concentration for half-maximal inhibition (IC50) amounted to 12.3 µM in assay [2], 5.96 µM in assay [3], 6.06 µM in assay [4] and 30 µM in assay [5].

As for `Cc1[nH]c(/C=C2\C(=O)Nc3ccc(-c4cnn(-c5ccccc5)c4)cc32)c(C)c1C(=O)N1CCN(C)CC1` [Example 6], the IC50 in assay [1] (Homo sapiens, FaDu, 72 h) was found to be 0.31 µM; in assay [2] it was 3.4 µM; in assay [3], 3.62 µM; in assay [4], 6.91 µM; in assay [5] it was 4.49 µM.
